What all share (assay): relative viability (nuclei count vs DMSO), 5 days (fraction); higher = more cells survive
Compound in the experiment “Bicalutamide + OSI-027”: CC(O)(CS(=O)(=O)c1ccc(F)cc1)C(=O)Nc1ccc(C#N)c(C(F)(F)F)c1 [Bicalutamide] + COc1cccc2cc(-c3nc([C@H]4CC[C@H](C(=O)O)CC4)n4ncnc(N)c34)[nH]c12 [OSI-027] (partner 0.5 µM)
In short, it runs like this:
(§1)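 One day after seeding in 1536-well plates, lung cancer cell lines were dosed by pin tool. Dosing was either single-drug or a fixed anchor-drug dose plus five library-drug doses (not always all listed) in √10 steps. After 5 days, nuclei were stained in one fix-and-stain step and counted on 4× images, and relative viability is the nuclei count of treated wells over that of vehicle wells, given as the median of duplicate plates.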

Compound in experiment [1]: C(C(=O)C(=O)O)Br [Bromopyruvate] + Nc1nc2[nH]cc(CCc3ccc(C(=O)N[C@@H](CCC(=O)O)C(=O)O)cc3)c2c(=O)[nH]1 [Pemetrexed] (partner 0.2 µM)
In short, it runs like this: as §1

Compound in experiment [2]: C(C(=O)C(=O)O)Br [Bromopyruvate] + C[C@@H](Oc1cc(-c2cnn(C3CCNCC3)c2)cnc1N)c1c(Cl)ccc(F)c1Cl [Crizotinib] (partner 1 µM)
In short, it runs like this: as §1

Compound in experiment [3]: C(C(=O)C(=O)O)Br [Bromopyruvate] + CCNC(=O)c1noc(-c2cc(C(C)C)c(O)cc2O)c1-c1ccc(CN2CCOCC2)cc1 [Luminespib] (partner 0.01 µM)
In short, it runs like this: as §1

As for HARA, the relative viability was determined as 0.633 in the experiment with Bicalutamide + OSI-027 (first compound 0.08 µM); 0.361 with Bicalutamide + OSI-027 (first compound 0.253 µM); 0.744 with Bicalutamide + OSI-027 (first compound 0.8 µM); 0.483 with Bicalutamide + OSI-027 (first compound 2.53 µM); 0.275 in experiment [1] (first compound 1 µM); 0.232 in experiment [1] (first compound 3.162 µM). The relative viability in experiment [1] (first compound 31.62 µM) is 0.219; in experiment [1] (first compound 100 µM), 0.271; in experiment [2] (first compound 1 µM), 1.05; in experiment [2] (first compound 3.162 µM), 1.03; in experiment [2] (first compound 10 µM), 0.983; in experiment [2] (first compound 31.62 µM), 0.991. Also, the relative viability was 1.06 in experiment [2] (first compound 100 µM); 0.707 in experiment [3] (first compound 1 µM); 0.939 in experiment [3] (first compound 3.162 µM); 0.486 in experiment [3] (first compound 10 µM); 0.75 in experiment [3] (first compound 31.62 µM); 0.802 in experiment [3] (first compound 100 µM).
As for HCC-15, the relative viability with Bicalutamide + OSI-027 (first compound 0.08 µM) came to 0.71; with Bicalutamide + OSI-027 (first compound 0.253 µM) it was 0.612; in the experiment with Bicalutamide + OSI-027 (first compound 0.8 µM) it was 0.908; with Bicalutamide + OSI-027 (first compound 2.53 µM), 0.571; in experiment [1] (first compound 1 µM), 0.241; in experiment [1] (first compound 3.162 µM), 0.231. For the same cell line, the relative viability in experiment [1] (first compound 10 µM) amounted to 0.227; in experiment [1] (first compound 31.62 µM) it was 0.229; in experiment [1] (first compound 100 µM), 0.234; in experiment [2] (first compound 1 µM) it was 0.823; in experiment [2] (first compound 3.162 µM), 0.898; in experiment [2] (first compound 10 µM), 0.793. Also, the relative viability in experiment [2] (first compound 31.62 µM) came to 0.817; in experiment [2] (first compound 100 µM), 0.905; in experiment [3] (first compound 1 µM), 0.363; in experiment [3] (first compound 3.162 µM), 0.416; in experiment [3] (first compound 10 µM), 0.509; in experiment [3] (first compound 31.62 µM) it was 0.328. Moreover, in experiment [3] (first compound 100 µM), the relative viability stood at 0.25.
For HCC-44, the relative viability came out at 0.723 with Bicalutamide + OSI-027 (first compound 0.08 µM); 0.403 in the experiment with Bicalutamide + OSI-027 (first compound 0.253 µM); 0.66 with Bicalutamide + OSI-027 (first compound 0.8 µM); 0.477 with Bicalutamide + OSI-027 (first compound 2.53 µM); 0.621 in experiment [1] (first compound 1 µM); 0.591 in experiment [1] (first compound 3.162 µM). The relative viability in experiment [1] (first compound 10 µM) came to 0.555; in experiment [1] (first compound 31.62 µM), 0.616; in experiment [1] (first compound 100 µM) it was 0.638; in experiment [2] (first compound 1 µM), 0.787; in experiment [2] (first compound 3.162 µM), 0.724; in experiment [2] (first compound 10 µM), 0.735. For the same cell line, the relative viability came to 0.862 in experiment [2] (first compound 31.62 µM); 0.884 in experiment [2] (first compound 100 µM); 1.09 in experiment [3] (first compound 1 µM); 1.12 in experiment [3] (first compound 3.162 µM); 1.54 in experiment [3] (first compound 10 µM); 0.968 in experiment [3] (first compound 31.62 µM). Moreover, the relative viability in experiment [3] (first compound 100 µM) stood at 0.948.
Consider HCC-78, for which the relative viability was found to be 0.381 with Bicalutamide + OSI-027 (first compound 0.08 µM); 0.371 with Bicalutamide + OSI-027 (first compound 0.253 µM); 0.43 with Bicalutamide + OSI-027 (first compound 0.8 µM); 0.352 with Bicalutamide + OSI-027 (first compound 2.53 µM); 0.938 in experiment [1] (first compound 1 µM); 0.92 in experiment [1] (first compound 3.162 µM). The relative viability in experiment [1] (first compound 10 µM) was 0.95; in experiment [1] (first compound 31.62 µM), 0.895; in experiment [1] (first compound 100 µM) it was 0.95; in experiment [2] (first compound 1 µM), 0.368; in experiment [2] (first compound 3.162 µM), 0.339; in experiment [2] (first compound 10 µM), 0.37. In addition, the relative viability in experiment [2] (first compound 31.62 µM) amounted to 0.349; in experiment [2] (first compound 100 µM), 0.347.
As for HCC-366, the relative viability with Bicalutamide + OSI-027 (first compound 0.08 µM) turned out to be 0.955; in the experiment with Bicalutamide + OSI-027 (first compound 0.253 µM) it was 0.848; with Bicalutamide + OSI-027 (first compound 0.8 µM) it was 1.08; with Bicalutamide + OSI-027 (first compound 2.53 µM), 0.718; in experiment [1] (first compound 1 µM), 0.17; in experiment [1] (first compound 3.162 µM), 0.174. Besides, the relative viability came to 0.146 in experiment [1] (first compound 10 µM); 0.203 in experiment [1] (first compound 31.62 µM); 0.2 in experiment [1] (first compound 100 µM); 0.569 in experiment [2] (first compound 1 µM); 0.54 in experiment [2] (first compound 3.162 µM); 0.947 in experiment [2] (first compound 10 µM). Also, the relative viability worked out at 0.548 in experiment [2] (first compound 31.62 µM) and 0.474 in experiment [2] (first compound 100 µM).

For the origin of these results see the supplement of paper PMC10307832.
